From paper PMC8308925 (Pharmaceuticals, 2021)
Values after ≈ are worked out from the molar mass of the structure shown. Like-named read-outs stand apart in the source and are kept apart here.

Columns and labels:
[1] = amlodipine PBPK model parameter, cited from earlier work
[2] = molecular target: T1, ASBT (Homo sapiens, UniProt Q12908); settings: inhibition of ASBT, implemented in DDI model; ref [61]; cited from earlier work
T1 sequence (Q12908 1-348): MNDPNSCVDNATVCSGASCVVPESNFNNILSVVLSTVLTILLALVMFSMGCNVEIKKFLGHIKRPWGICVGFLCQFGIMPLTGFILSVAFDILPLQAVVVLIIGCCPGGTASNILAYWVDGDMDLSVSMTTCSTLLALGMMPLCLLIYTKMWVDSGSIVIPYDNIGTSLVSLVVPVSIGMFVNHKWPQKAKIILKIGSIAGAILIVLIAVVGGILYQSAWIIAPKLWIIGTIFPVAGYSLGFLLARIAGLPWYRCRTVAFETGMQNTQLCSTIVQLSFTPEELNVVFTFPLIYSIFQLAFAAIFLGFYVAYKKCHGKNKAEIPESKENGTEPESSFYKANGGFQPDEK

[3] = cited from earlier work
[4] = molecular target: CYP2E1 (Homo sapiens, UniProt P05181); test: biochemical
[5] = molecular target: T2, NTCP (Homo sapiens, UniProt Q14973); test: Uptake of MT921 and probe substrate in HEK 293-NTCP cells (substrate specificity, kinetics)
T2 sequence (Q14973 1-349): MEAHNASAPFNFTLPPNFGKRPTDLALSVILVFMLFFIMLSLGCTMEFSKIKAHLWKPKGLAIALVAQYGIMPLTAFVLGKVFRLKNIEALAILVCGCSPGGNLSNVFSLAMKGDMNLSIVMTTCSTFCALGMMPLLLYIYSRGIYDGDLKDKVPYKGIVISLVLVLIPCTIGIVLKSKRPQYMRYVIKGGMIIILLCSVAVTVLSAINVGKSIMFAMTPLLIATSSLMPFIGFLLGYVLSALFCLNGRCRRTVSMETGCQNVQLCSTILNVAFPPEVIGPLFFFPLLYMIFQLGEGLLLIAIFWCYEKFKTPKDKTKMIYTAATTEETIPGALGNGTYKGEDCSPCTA
Experimental: (§1) For the experiments, 0.8 × 10^5 cells per well were seeded in poly-D-lysine coated 24-well plates, except for HEK293-ASBT cells, where 1 × 10^5 cells per well were seeded in poly-D-lysine coated 24-well plates. After incubation for 48 h, the medium was removed and the cells were washed with DPBS and preincubated for 10 min in DPBS at 37 °C.
(§2) Cells were disintegrated in 150 µL of 70% acetonitrile containing internal standard (IS; 200 nM of chenodeoxycholic acid). The cells were sonicated for 3 s and centrifuged at 13,000 rpm for 10 min. An aliquot (5 µL) from the supernatant (100 µL) was injected into LC-MS/MS system.
(§3) The sample preparation method is as stated above.
(§4) Vmax represents the maximum velocity at saturating substrate concentration, [S] represents the substrate concentration, Km represents the substrate concentration at half Vmax, and CLdiffusion represents the passive diffusion clearance.

[6] = molecular target: T3, OATP1B3 (Homo sapiens, UniProt Q9NPD5); test: in vitro
T3 sequence (Q9NPD5 1-702): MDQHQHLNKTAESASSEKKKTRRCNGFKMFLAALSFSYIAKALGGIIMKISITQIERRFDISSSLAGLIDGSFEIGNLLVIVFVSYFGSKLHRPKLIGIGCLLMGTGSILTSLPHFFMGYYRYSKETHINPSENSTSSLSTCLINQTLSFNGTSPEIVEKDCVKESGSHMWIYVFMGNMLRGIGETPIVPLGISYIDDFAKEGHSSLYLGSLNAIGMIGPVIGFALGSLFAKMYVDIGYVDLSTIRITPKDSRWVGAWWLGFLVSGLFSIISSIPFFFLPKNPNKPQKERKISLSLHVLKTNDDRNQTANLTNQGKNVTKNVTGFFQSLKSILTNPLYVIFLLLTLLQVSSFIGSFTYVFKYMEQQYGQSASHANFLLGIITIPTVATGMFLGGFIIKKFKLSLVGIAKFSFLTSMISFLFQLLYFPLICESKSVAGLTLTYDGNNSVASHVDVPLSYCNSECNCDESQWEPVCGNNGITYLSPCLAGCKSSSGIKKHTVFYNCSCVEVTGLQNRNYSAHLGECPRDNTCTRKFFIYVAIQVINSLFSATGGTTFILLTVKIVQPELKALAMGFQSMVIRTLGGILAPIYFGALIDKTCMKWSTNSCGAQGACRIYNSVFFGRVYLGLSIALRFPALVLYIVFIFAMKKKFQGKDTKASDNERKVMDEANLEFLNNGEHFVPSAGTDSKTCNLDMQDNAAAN
Experimental: as §1, §2, §3, §4

[7] = molecular target: T3, OATP1B3
[8] = molecular target: T1, ASBT; test: Uptake of MT921 and probe substrate in HEK 293-ASBT cells (substrate specificity, kinetics); assay type: in vitro ADME; settings: ASBT-mediated MT921 uptake, 5–100 µM
Experimental: as §1, §2, §3, §4

[9] = molecular target: T4, OATP1B1 (Homo sapiens, UniProt Q9Y6L6); test: in vitro
T4 sequence (Q9Y6L6 1-691): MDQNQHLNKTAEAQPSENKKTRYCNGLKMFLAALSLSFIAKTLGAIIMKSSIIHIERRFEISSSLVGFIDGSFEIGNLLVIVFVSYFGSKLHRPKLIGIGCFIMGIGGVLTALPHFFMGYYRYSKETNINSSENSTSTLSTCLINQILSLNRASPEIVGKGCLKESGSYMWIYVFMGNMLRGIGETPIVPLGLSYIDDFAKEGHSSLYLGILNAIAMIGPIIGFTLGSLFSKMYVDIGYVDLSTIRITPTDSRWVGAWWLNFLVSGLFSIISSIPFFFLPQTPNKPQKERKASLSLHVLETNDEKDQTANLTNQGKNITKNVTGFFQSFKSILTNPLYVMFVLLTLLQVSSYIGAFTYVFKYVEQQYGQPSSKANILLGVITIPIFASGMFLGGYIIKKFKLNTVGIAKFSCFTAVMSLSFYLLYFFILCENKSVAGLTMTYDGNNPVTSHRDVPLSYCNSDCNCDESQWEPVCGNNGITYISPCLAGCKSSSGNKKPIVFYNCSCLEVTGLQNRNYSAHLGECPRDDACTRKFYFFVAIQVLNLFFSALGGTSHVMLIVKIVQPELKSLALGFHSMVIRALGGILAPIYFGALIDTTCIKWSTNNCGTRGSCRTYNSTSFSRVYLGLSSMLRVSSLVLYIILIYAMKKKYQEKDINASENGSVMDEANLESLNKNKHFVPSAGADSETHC

[10] = molecular target: T5, CYP2C8 (Homo sapiens, UniProt P10632); settings: read-out: Positive control IC50; Rosiglitazone hydroxylation; in-house data, similar to the reference values [1]
T5 sequence (P10632 1-490): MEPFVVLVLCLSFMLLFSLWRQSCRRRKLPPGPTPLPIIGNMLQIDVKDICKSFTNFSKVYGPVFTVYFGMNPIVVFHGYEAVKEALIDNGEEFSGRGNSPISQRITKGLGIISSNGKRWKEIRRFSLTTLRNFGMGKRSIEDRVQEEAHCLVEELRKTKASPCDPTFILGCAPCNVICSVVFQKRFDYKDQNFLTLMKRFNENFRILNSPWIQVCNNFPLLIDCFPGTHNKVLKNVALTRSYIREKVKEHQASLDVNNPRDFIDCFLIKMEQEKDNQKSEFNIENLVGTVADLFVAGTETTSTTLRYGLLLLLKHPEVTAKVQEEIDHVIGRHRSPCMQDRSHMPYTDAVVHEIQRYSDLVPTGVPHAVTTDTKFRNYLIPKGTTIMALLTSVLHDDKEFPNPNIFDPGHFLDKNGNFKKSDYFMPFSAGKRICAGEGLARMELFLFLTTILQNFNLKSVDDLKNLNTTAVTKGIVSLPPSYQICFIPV

[11] = substrate: C[C@H](CCC(=O)O)[C@H]1CC[C@H]2[C@@H]3[C@H](O)C[C@@H]4C[C@H](O)CC[C@]4(C)[C@H]3C[C@H](O)[C@]12C; test: cells, lysate or membranes named; settings: other: OAT3-mediated MT921 uptake, 5–300 µM, modified Michaelis–Menten fit; 37.0 °C
[12] = Literature, ref [33] (supplement list)

CYP2E1, sequence (P05181 whole entry): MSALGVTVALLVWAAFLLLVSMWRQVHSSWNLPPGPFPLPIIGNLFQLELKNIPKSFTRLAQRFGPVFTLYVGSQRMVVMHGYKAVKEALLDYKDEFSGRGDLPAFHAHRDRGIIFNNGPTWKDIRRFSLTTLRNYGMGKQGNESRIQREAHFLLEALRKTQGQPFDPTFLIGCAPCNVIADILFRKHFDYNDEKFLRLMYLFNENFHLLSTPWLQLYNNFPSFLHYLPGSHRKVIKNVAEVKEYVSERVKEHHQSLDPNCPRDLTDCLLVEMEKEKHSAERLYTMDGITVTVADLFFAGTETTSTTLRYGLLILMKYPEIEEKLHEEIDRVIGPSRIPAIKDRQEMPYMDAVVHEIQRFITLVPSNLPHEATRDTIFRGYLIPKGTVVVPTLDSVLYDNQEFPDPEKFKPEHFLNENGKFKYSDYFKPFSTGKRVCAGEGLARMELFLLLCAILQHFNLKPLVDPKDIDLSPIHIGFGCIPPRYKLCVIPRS

In the case of `CCOC(=O)C1=C(COCCN)NC(C)=C(C(=O)OC)C1c1ccccc1Cl` (centres unmarked) [amlodipine], the Fraction unbound [1, 12] is given as 0.07, the “Log P” value [1, 12] is given as 3.43 Log units and the Solubility ([1]; extracted from published literature, no reference given) is given as 75.3 µg/mL (≈ 184 µM). For the same molecule, the Ki [2] was 42.1 µM, the “Cmax Obs” value ([3]; 2.5 mg po (tab), sd, ref [28] (supplement list)) was 1.94 ng/mL and the “Cmax Obs” value ([3]; 5 mg po (tab), sd, first line of the study, ref [27] (supplement list)) was 3.56 ng/mL. For the same molecule, the “Cmax Obs” value ([3]; 5 mg po (tab), sd, ref [17] (supplement list)) was 2.36 ng/mL, the “Cmax Obs” value ([3]; 5 mg po (tab), sd, ref [20] (supplement list)) was 3.18 ng/mL and the “Cmax Obs” value ([3]; 5 mg po (tab), sd, ref [23] (supplement list)) was 2.44 ng/mL. The “Cmax Obs” value ([3]; 5 mg po (tab), sd, ref [25] (supplement list)) was 2.54 ng/mL, the “Cmax Obs” value ([3]; 5 mg po (tab), sd, ref [30] (supplement list)) was 3.07 ng/mL and the “Cmax Obs” value ([3]; 5 mg po (tab), sd, second line of the study, ref [27] (supplement list)) was 3.64 ng/mL. For the same molecule, the “Cmax Obs” value ([3]; 10 mg po (tab), md, ref [16] (supplement list)) was 18.77 ng/mL, the “Cmax Obs” value ([3]; 10 mg po (tab), md, ref [21] (supplement list)) was 18.73 ng/mL and the “Cmax Obs” value ([3]; 10 mg po (tab), sd, first line of the study, ref [22] (supplement list)) was 5.32 ng/mL. The “Cmax Obs” value ([3]; 10 mg po (tab), sd, ref [17] (supplement list)) was 5.13 ng/mL, the “Cmax Obs” value ([3]; 10 mg po (tab), sd, ref [18] (supplement list)) was 5.51 ng/mL and the “Cmax Obs” value ([3]; 10 mg po (tab), sd, ref [19] (supplement list)) was 5.40 ng/mL. For the same molecule, the “Cmax Obs” value ([3]; 10 mg po (tab), sd, ref [20] (supplement list)) was 6.85 ng/mL, the “Cmax Obs” value ([3]; 10 mg po (tab), sd, ref [24] (supplement list)) was 8.13 ng/mL and the “Cmax Obs” value ([3]; 10 mg po (tab), sd, ref [26] (supplement list)) was 6.41 ng/mL. The “Cmax Obs” value ([3]; 10 mg po (tab), sd, ref [29] (supplement list)) was 4.92 ng/mL and the “Cmax Obs” value ([3]; 10 mg po (tab), sd, second line of the study, ref [22] (supplement list)) was 4.37 ng/mL.

Molecule `CCN(CC)C(=S)S` [Diethyldithio-carbamate] has an IC50 [4] of 16.7 µM.

In the case of `C[C@H](CCC(=O)NCCS(=O)(=O)O)[C@H]1CC[C@H]2[C@@H]3[C@H](O)C[C@@H]4C[C@H](O)CC[C@]4(C)[C@H]3C[C@H](O)[C@]12C` [[^3H]taurocholate], the “Increase of probe substrate uptake rate in transporter-expressing cells compared to mock cells” value ([5]; 0.8 µM probe substrate, HEK 293-NTCP) is reported as 102.1 fold.

In the case of `C[C@]12CC[C@@H]3c4ccc(O)cc4CC[C@H]3[C@@H]1CC[C@@H]2O[C@@H]1O[C@H](C(=O)O)[C@@H](O)[C@H](O)[C@H]1O`, the “Increase of probe substrate uptake rate in transporter-expressing cells compared to mock cells” value ([6]; 0.06 µM probe substrate, HEK 293-OATP1B3) is reported as 9.6 fold.

With `C[C@H](CCC(=O)O)[C@H]1CC[C@H]2[C@@H]3[C@H](O)C[C@@H]4C[C@H](O)CC[C@]4(C)[C@H]3C[C@H](O)[C@]12C` [MT921, cholic acid] the Km ([6]; OATP1B3-mediated MT921 uptake, 5–100 µM, modified Michaelis–Menten fit) was 27.4 µM, the “intrinsic clearance (Vmax/Km)” value ([6]; human) was 3.46 µL/mg protein/min and the Km at 10 min ([6]; human, Km, OATP1B3-mediated MT921 uptake, 5–100 µM, modified Michaelis–Menten fit) was 27.4 µM. The Vmax ([5]; NTCP-mediated MT921 uptake, 5–100 µM) was 409.28 pmol/mg protein/min, the CLdiffusion ([5]; passive diffusion clearance, HEK 293-NTCP) was 1.27 µL/mg protein/min and the IC50 [7] was 38.3 µM. The Ki [7] was 38.2 µM, the Vmax [8] was 302.31 pmol/mg protein/min and the IC50 at 5 min [9] was 63.2 µM.

`O=c1c(O)c(-c2ccc(O)c(O)c2)oc2cc(O)cc(O)c12` [Quercetin] showed an IC50 [10] of 8.47 µM.

B1: OAT3 (Homo sapiens) (protein)
chain: MTFSEILDRVGSMGHFQFLHVAILGLPILNMANHNLLQIFTAATPVHHCRPPHNASTGPWVLPMGPNGKPERCLRFVHPPNASLPNDTQRAMEPCLDGWVYNSTKDSIVTEWDLVCNSNKLKEMAQSIFMAGILIGGLVLGDLSDRFGRRPILTCSYLLLAASGSGAAFSPTFPIYMVFRFLCGFGISGITLSTVILNVEWVPTRMRAIMSTALGYCYTFGQFILPGLAYAIPQWRWLQLTVSIPFFVFFLSSWWTPESIRWLVLSGKSSKALKILRRVAVFNGKKEEGERLSLEELKLNLQKEISLAKAKYTASDLFRIPMLRRMTFCLSLAWFATGFAYYSLAMGVEEFGVNLYILQIIFGGVDVPAKFITILSLSYLGRHTTQAAALLLAGGAILALTFVPLDLQTVRTVLAVFGKGCLSSSFSCLFLYTSELYPTVIRQTGMGVSNLWTRVGSMVSPLVKITGEVQPFIPNIIYGITALLGGSAALFLPETLNQPLPETIEDLENWSLRAKKPKQEPEVEKASQRIPLQPHGPGLGSS
B1 gave a Km [11] of 133.33 µM and a Vmax/Km [11] of 1.28 µL/mg protein/min.
